Measurements published in patent US20030190377A1, “Novel use of the extract of processed Panax genus plant and saponin compound isolated therefrom” (Ginseng Science Inc., priority 2002, published 2003).
Values after ≈ are worked out from the molar mass of the structure shown. Where two headings read alike, the source gives them in different places.

What was measured:
Helicobacter pylori = assay: Inhibitory effect on proliferation of Helicobacter pylori (MIC, Brucella agar); type: cell-based
H+/K+-ATPase = H+/K+-ATPase (Rattus norvegicus, UniProt P09626); assay: H+/K+-ATPase activity inhibition test; conditions: for IC50 for H+/K+-ATPase: stomach enzyme, pre-incubated 37° C. 30 minutes, pH 7.4
[1] = H. pylori strain ATCC 43504, 37° C., 3 days
[2] = H. pylori strain Clinical 4, 37° C., 3 days
[3] = H. pylori strain Clinical 82516, 37° C., 3 days
[4] = H. pylori strain Clinical 82548, 37° C., 3 days
[5] = H. pylori strain NCTC 11637, 37° C., 3 days
[6] = H. pylori strain NCTC 11638, 37° C., 3 days

H+/K+-ATPase, sequence (P09626 whole entry): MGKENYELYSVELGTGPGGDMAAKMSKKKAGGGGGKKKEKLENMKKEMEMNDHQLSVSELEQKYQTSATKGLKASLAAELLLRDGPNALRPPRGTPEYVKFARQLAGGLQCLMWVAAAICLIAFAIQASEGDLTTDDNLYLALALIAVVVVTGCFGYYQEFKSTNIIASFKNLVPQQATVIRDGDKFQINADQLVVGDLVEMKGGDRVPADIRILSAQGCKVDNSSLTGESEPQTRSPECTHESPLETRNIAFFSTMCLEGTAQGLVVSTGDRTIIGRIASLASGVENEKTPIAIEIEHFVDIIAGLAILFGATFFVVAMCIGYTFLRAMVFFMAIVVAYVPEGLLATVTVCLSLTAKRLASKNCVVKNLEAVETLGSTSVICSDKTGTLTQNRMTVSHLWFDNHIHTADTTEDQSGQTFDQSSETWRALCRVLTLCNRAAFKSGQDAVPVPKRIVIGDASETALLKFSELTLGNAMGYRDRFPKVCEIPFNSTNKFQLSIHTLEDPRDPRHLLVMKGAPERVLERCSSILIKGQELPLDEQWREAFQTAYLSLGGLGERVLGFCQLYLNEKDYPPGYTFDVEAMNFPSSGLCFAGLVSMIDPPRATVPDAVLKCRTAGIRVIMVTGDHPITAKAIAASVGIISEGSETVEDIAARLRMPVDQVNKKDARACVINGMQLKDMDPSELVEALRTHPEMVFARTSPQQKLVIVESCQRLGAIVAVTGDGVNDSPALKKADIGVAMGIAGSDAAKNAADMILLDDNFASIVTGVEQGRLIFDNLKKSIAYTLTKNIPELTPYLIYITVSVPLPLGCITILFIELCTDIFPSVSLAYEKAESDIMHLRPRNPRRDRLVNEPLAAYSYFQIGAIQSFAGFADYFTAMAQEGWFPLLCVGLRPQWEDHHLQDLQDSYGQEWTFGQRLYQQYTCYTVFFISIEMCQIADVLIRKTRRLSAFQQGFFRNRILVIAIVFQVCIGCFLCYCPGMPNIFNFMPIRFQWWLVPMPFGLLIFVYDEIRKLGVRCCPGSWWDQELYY
H+/K+-ATPase, sequence (P18598 whole entry partner): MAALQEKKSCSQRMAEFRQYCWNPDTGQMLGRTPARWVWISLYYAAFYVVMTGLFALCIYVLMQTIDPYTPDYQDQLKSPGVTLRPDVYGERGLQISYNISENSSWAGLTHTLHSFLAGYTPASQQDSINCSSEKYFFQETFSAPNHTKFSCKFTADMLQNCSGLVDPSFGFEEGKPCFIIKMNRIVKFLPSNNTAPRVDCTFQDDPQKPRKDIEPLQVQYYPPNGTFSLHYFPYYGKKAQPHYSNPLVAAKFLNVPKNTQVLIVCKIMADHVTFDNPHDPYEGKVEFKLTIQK

| Structure (SMILES) | MIC ATCC 43504 (Helicobacter pylori; [1]) | MIC Clinical 4 (Helicobacter pylori; [2]) | MIC Clinical 82516 (Helicobacter pylori; [3]) | MIC Clinical 82548 (Helicobacter pylori; [4]) | MIC NCTC 11637 (Helicobacter pylori; [5]) | MIC NCTC 11638 (Helicobacter pylori; [6]) | IC50 for H+/K+-ATPase (H+/K+-ATPase) | other results |
| --- | --- | --- | --- | --- | --- | --- | --- | --- |
| CC(C)=CCC[C@@](C)(O)[C@H]1CC[C@]2(C)[C@@H]1[C@H](O)C[C@@H]1[C@@]3(C)CC[C@H](O)C(C)(C)[C@@H]3CC[C@]12C [protopanaxadiol] | – | – | – | – | – | – | – | MIC (Helicobacter pylori; strain not specified): 50 µg/mL (≈ 109 µM) |
| CC(C)=CCC[C@](C)(O)[C@H]1CC[C@]2(C)[C@@H]1[C@H](O)C[C@@H]1[C@@]3(C)CC[C@H](O[C@@H]4O[C@H](CO)[C@@H](O)[C@H](O)[C@H]4O[C@@H]4O[C@H](CO)[C@@H](O)[C@H](O)[C@H]4O)C(C)(C)[C@@H]3CC[C@]12C [20(S)-ginsenoside Rg3] | 200 µg/mL (≈ 255 µM) | 200 µg/mL (≈ 255 µM) | 200 µg/mL (≈ 255 µM) | 200 µg/mL (≈ 255 µM) | 200 µg/mL (≈ 255 µM) | 200 µg/mL (≈ 255 µM) | 600 µg/mL | – |
| CC(C)=CCC[C@](C)(O[C@@H]1O[C@H](CO[C@@H]2O[C@H](CO)[C@@H](O)[C@H](O)[C@H]2O)[C@@H](O)[C@H](O)[C@H]1O)[C@H]1CC[C@]2(C)[C@@H]1[C@H](O)C[C@@H]1[C@@]3(C)CC[C@H](O[C@@H]4O[C@H](CO)[C@@H](O)[C@H](O)[C@H]4O[C@@H]4O[C@H](CO)[C@@H](O)[C@H](O)[C@H]4O)C(C)(C)[C@@H]3CC[C@]12C [Ginsenoside Rb1] | >100 µg/mL | >100 µg/mL | >100 µg/mL | >100 µg/mL | >100 µg/mL | >100 µg/mL | >1000 µg/mL | – |
| CC(C)=CCC[C@](C)(O[C@@H]1O[C@H](CO[C@@H]2OC[C@H](O)[C@H](O)[C@H]2O)[C@@H](O)[C@H](O)[C@H]1O)[C@H]1CC[C@]2(C)[C@@H]1[C@H](O)C[C@@H]1[C@@]3(C)CC[C@H](O[C@@H]4O[C@H](CO)[C@@H](O)[C@H](O)[C@H]4O[C@@H]4O[C@H](CO)[C@@H](O)[C@H](O)[C@H]4O)C(C)(C)[C@@H]3CC[C@]12C [Ginsenoside Rb2, reference compound] | >100 µg/mL | >100 µg/mL | >100 µg/mL | >100 µg/mL | >100 µg/mL | >100 µg/mL | >1000 µg/mL | – |
| CC(C)=CCC[C@](C)(O)[C@H]1CC[C@]2(C)[C@@H]1[C@H](O)C[C@@H]1[C@@]3(C)CC[C@H](O[C@@H]4O[C@H](CO)[C@@H](O)[C@H](O)[C@H]4O[C@@H]4O[C@H](CO)[C@@H](O)[C@H](O)[C@H]4O)C(C)(C)[C@@H]3CC[C@]12C [20(R)-ginsenoside Rg3] | 200 µg/mL (≈ 255 µM) | 200 µg/mL (≈ 255 µM) | 200 µg/mL (≈ 255 µM) | 200 µg/mL (≈ 255 µM) | 200 µg/mL (≈ 255 µM) | 200 µg/mL (≈ 255 µM) | 700 µg/mL | – |
| CC(C)=CCC[C@](C)(O)[C@H]1CC[C@]2(C)[C@@H]1[C@H](O)C[C@@H]1[C@@]3(C)CC[C@H](O)C(C)(C)[C@@H]3CC[C@]12C [20(S)-protopanaxadiol] | 50 µg/mL (≈ 109 µM) | 50 µg/mL (≈ 109 µM) | 50 µg/mL (≈ 109 µM) | 50 µg/mL (≈ 109 µM) | 50 µg/mL (≈ 109 µM) | 50 µg/mL (≈ 109 µM) | >1000 µg/mL | inhibiting activity of proliferation of Helicobacter strain (Helicobacter pylori; result in words): potent inhibiting activity |
| CC(C)=CCC[C@](C)(O[C@@H]1O[C@H](CO[C@@H]2O[C@@H](CO)[C@H](O)[C@H]2O)[C@@H](O)[C@H](O)[C@H]1O)[C@H]1CC[C@]2(C)[C@@H]1[C@H](O)C[C@@H]1[C@@]3(C)CC[C@H](O[C@@H]4O[C@H](CO)[C@@H](O)[C@H](O)[C@H]4O[C@@H]4O[C@H](CO)[C@@H](O)[C@H](O)[C@H]4O)C(C)(C)[C@@H]3CC[C@]12C [Ginsenoside Rc] | – | – | – | – | – | – | – | MIC (Helicobacter pylori; Helicobacter pylori, 72 h, H. pylori strain Clinical 4, 37° C., 3 days, read-out: MIC Clinical 4): > 100 µg/mL; MIC (Helicobacter pylori; Helicobacter pylori, 72 h, H. pylori strain Clinical 82516, 37° C., 3 days, read-out: MIC Clinical 82516): > 100 µg/mL; MIC (Helicobacter pylori; Helicobacter pylori, 72 h, H. pylori strain Clinical 82548, 37° C., 3 days, read-out: MIC Clinical 82548): > 100 µg/mL; MIC (Helicobacter pylori; Helicobacter pylori, ATCC43504, 72 h, H. pylori strain ATCC 43504, 37° C., 3 days, read-out: MIC ATCC 43504): > 100 µg/mL; MIC (Helicobacter pylori; Helicobacter pylori, NCTC11637, 72 h, H. pylori strain NCTC 11637, 37° C., 3 days, read-out: MIC NCTC 11637): > 100 µg/mL; MIC (Helicobacter pylori; Helicobacter pylori, NCTC11638, 72 h, H. pylori strain NCTC 11638, 37° C., 3 days, read-out: MIC NCTC 11638): > 100 µg/mL; IC50 (H+/K+-ATPase): > 927 µM |
| CC(C)=CCC[C@@](C)(O)[C@H]1CC[C@]2(C)[C@@H]1[C@H](O)C[C@@H]1[C@@]3(C)CC[C@H](O)C(C)(C)[C@@H]3CC[C@]12C [20(R)-protopanaxadiol] | 50 µg/mL (≈ 109 µM) | 50 µg/mL (≈ 109 µM) | 50 µg/mL (≈ 109 µM) | 50 µg/mL (≈ 109 µM) | 50 µg/mL (≈ 109 µM) | 50 µg/mL (≈ 109 µM) | – | – |
| CC(C)=CCC[C@](C)(O)[C@H]1CC[C@]2(C)[C@@H]1[C@H](O)C[C@@H]1[C@@]3(C)CC[C@H](O)C(C)(C)[C@@H]3[C@@H](O)C[C@]12C [Protopanaxatriol] | 50 µg/mL (≈ 105 µM) | 50 µg/mL (≈ 105 µM) | 50 µg/mL (≈ 105 µM) | 50 µg/mL (≈ 105 µM) | 50 µg/mL (≈ 105 µM) | 50 µg/mL (≈ 105 µM) | – | – |
| CC(C)=CCC[C@@](C)(O)[C@H]1CC[C@]2(C)[C@@H]1[C@H](O)C[C@@H]1[C@@]3(C)CC[C@H](O[C@@H]4O[C@H](CO)[C@@H](O)[C@H](O)[C@H]4O)C(C)(C)[C@@H]3CC[C@]12C [20(R)-ginsenoside Rh2] | 100 µg/mL (≈ 161 µM) | 100 µg/mL (≈ 161 µM) | 100 µg/mL (≈ 161 µM) | 100 µg/mL (≈ 161 µM) | 100 µg/mL (≈ 161 µM) | 100 µg/mL (≈ 161 µM) | 500 µg/mL | – |
| CC(C)=CCC[C@](C)(O[C@@H]1O[C@H](CO)[C@@H](O)[C@H](O)[C@H]1O)[C@H]1CC[C@]2(C)[C@@H]1[C@H](O)C[C@@H]1[C@@]3(C)CC[C@H](O)C(C)(C)[C@@H]3CC[C@]12C [Compound K, reference compound] | >100 µg/mL | >100 µg/mL | >100 µg/mL | >100 µg/mL | >100 µg/mL | >100 µg/mL | >1000 µg/mL | – |
| COc1ccc2[nH]c([S+]([O-])Cc3ncc(C)c(OC)c3C)nc2c1 (centres unmarked) [Omeprazole, reference compound] | – | – | – | – | – | – | – | IC50 (H+/K+-ATPase): 57.9 µM |
| CC(C)=CCC[C@](C)(O)[C@H]1CC[C@]2(C)[C@@H]1[C@H](O)C[C@@H]1[C@@]3(C)CC[C@H](O)C(C)(C)[C@@H]3[C@@H](O[C@@H]3O[C@H](CO)[C@@H](O)[C@H](O)[C@H]3O)C[C@]12C [Ginsenoside Rh1] | >100 µg/mL | >100 µg/mL | >100 µg/mL | >100 µg/mL | >100 µg/mL | >100 µg/mL | >1000 µg/mL | – |
| CC1(C)CCC[C@](C)([C@H]2CC[C@]3(C)[C@@H]2[C@H](O)C[C@@H]2[C@@]4(C)CC[C@H](O)C(C)(C)[C@@H]4[C@@H](O)C[C@]23C)O1 [panaxatriol] | – | – | – | – | – | – | – | MIC (Helicobacter pylori; Helicobacter pylori, strain not specified, read-out: MIC): 50 µg/mL (≈ 105 µM) |
| CC(C)=CCC[C@](C)(O)[C@H]1CC[C@]2(C)[C@@H]1[C@H](O)C[C@@H]1[C@@]3(C)CC[C@H](O[C@@H]4O[C@H](CO)[C@@H](O)[C@H](O)[C@H]4O)C(C)(C)[C@@H]3CC[C@]12C [20(S)-ginsenoside Rh2] | 100 µg/mL (≈ 161 µM) | 100 µg/mL (≈ 161 µM) | 100 µg/mL (≈ 161 µM) | 100 µg/mL (≈ 161 µM) | 100 µg/mL (≈ 161 µM) | 100 µg/mL (≈ 161 µM) | 500 µg/mL | – |
